Test results taken from patent US12240813B2, “Deuterated tryptamine derivatives and methods of use” (priority 2020, dated 2025).

Experiments:
[1] = target: T1, hrMAO-A (Homo sapiens, UniProt P21397); assay: Metabolic stability in the presence of hrMAO-A; assay type: in vitro ADME; conditions: for MAO, % (half-life as % vs. the related nondeuterated compound) / MAO (metabolized or not): MAO-A; for MAO, % (half-life as % vs. the related nondeuterated compound): values in square brackets are within 10% difference (assay's accuracy), no deuteration effect; for MAO (metabolized or not): last assay time point 120 min
T1 construct: purchased XenoTech Lot #8213001
T1 sequence (P21397 1-527): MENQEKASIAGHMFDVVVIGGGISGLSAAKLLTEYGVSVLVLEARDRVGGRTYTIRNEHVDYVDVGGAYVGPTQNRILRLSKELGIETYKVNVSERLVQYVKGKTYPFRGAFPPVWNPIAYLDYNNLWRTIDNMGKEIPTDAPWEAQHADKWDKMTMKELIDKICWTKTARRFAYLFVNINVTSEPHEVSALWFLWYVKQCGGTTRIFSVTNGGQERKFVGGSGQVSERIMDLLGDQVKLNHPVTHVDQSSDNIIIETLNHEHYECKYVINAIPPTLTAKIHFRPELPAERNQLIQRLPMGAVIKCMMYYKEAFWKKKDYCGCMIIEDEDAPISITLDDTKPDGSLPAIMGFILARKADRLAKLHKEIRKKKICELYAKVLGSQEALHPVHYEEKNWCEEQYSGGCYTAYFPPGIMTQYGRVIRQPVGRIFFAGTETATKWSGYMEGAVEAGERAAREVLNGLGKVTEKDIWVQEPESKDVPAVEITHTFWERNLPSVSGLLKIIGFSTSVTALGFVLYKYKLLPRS
Procedure: The reaction mixture was prepared as described below. The co-dosed TAs were added into the reaction mixture at a final concentration of 1 microM each. The positive control, kynuramine (25 microM), was run simultaneously with the TAs in a separate reaction. The reaction mixture (without TAs or kynuramine) was equilibrated in a shaking water bath at 37° C. for 5 minutes. The reaction was initiated by the addition of the TAs or kynuramine, and the mixture was incubated in a shaking water bath at 37° C. Aliquots (100 microL) of the TA reaction mixture were withdrawn at 0, 5, 10, 20, 30, 60, and 120 minutes. Aliquots (100 microL) of the positive control reaction mixture were withdrawn at 0 and 30 minutes. TA and kynuramine samples were immediately combined with 100 microL of ice-cold 100% MeCN containing 0.1% formic acid and IS to terminate the reaction. The samples were then mixed and centrifuged to precipitate proteins. All TA samples were assayed by LC-HRAMS. The PARR (analyte to IS) at each time point was compared to the PARR at time 0 to determine the percent remaining at each time point. Reaction composition: hrMAO 0.02 mg/mL; Potassium Phosphate, pH 7.4 100 mM; Magnesium Chloride 5 mM; Test Articles (each) 1 microM.

[2] = tested on: rat liver microsomes; assay: Metabolic stability in rat liver microsomes (RLM); conditions: for RLM, % (half-life as % vs. the related nondeuterated compound): values in square brackets are within 10% difference (assay's accuracy), no deuteration effect; for RLM (metabolized or not): last assay time point 120 min; for RLM, % (half-life as % vs. the related nondeuterated compound) / RLM (metabolized or not) / % Remaining of Initial, 0 min / % Remaining of Initial, 5 min / % Remaining of Initial, 10 min / % Remaining of Initial, 20 min / % Remaining of Initial, 30 min / % Remaining of Initial, 60 min / % Remaining of Initial, 120 min: RLM
[3] = hrMAO-A, Table 3, four test articles
[4] = hrMAO-A, Table 5, d8 and d10 analogs of DMT
[5] = Table 4, d8 and d10 analogs of DMT

SMILES: [2H]C([2H])(NC)C([2H])([2H])c1c[nH]c2ccccc12
- MAO, % (half-life as % vs. the related nondeuterated compound) [1]: 622%
- RLM, % (half-life as % vs. the related nondeuterated compound) [2]: 189%

SMILES: CN(C)CCc1c[nH]c2ccc(O)cc12 [reference compound]
- MAO (metabolized or not) [1]: R
- RLM (metabolized or not) [2]: R

SMILES: [2H]C([2H])(Cc1c[nH]c2ccccc12)N(C)CC
- MAO, % (half-life as % vs. the related nondeuterated compound) [1]: 168%
- RLM, % (half-life as % vs. the related nondeuterated compound) [2]: 121%

SMILES: [2H]C([2H])(Cc1c[nH]c2ccccc12)N(C)C [DMT-d2]
- % Remaining of Initial, 0 min [1, 3]: 100%
- % Remaining of Initial, 5 min [1, 3]: 106%
- % Remaining of Initial, 10 min [1, 3]: 111%
- % Remaining of Initial, 20 min [1, 3]: 101%
- % Remaining of Initial, 30 min [1, 3]: 97.5%
- % Remaining of Initial, 60 min [1, 3]: 76.0%
- % Remaining of Initial, 120 min [1, 3]: 59.1%
- CLint ([1]; hrMAO-A, Table 3): 0.126 mL/min/mg protein
- Half-life [1, 3]: > 2 h
- % Remaining of Initial, 0 min ([2]; Table 2, four test articles): 100%
- % Remaining of Initial, 5 min ([2]; Table 2, four test articles): 67.5%
- % Remaining of Initial, 10 min ([2]; Table 2, four test articles): 56.6%
- % Remaining of Initial, 20 min ([2]; Table 2, four test articles): 48.8%
- % Remaining of Initial, 30 min ([2]; Table 2, four test articles): 43.3%
- % Remaining of Initial, 60 min ([2]; Table 2, four test articles): 32.0%
- % Remaining of Initial, 120 min ([2]; Table 2, four test articles): 21.5%

SMILES: [2H]C([2H])([2H])NC([2H])([2H])C([2H])([2H])c1c[nH]c2cccc(O)c12
- MAO, % (half-life as % vs. the related nondeuterated compound) [1]: 459%
- RLM, % (half-life as % vs. the related nondeuterated compound) [2]: 173%

SMILES: [2H]C([2H])([2H])Oc1ccc2[nH]cc(CCN(C)C)c2c1
- MAO, % (half-life as % vs. the related nondeuterated compound) [1]: [109] %
- RLM, % (half-life as % vs. the related nondeuterated compound) [2]: 151%

SMILES: [2H]C([2H])(Cc1c[nH]c2cccc(O)c12)NC
- MAO, % (half-life as % vs. the related nondeuterated compound) [1]: 395%
- RLM, % (half-life as % vs. the related nondeuterated compound) [2]: 154%

SMILES: [2H]C([2H])(Cc1c[nH]c2cccc(OC)c12)N(C)C
- MAO, % (half-life as % vs. the related nondeuterated compound) [1]: 335%
- RLM, % (half-life as % vs. the related nondeuterated compound) [2]: 185%

SMILES: [2H]C([2H])([2H])C([2H])([2H])NC([2H])([2H])C([2H])([2H])c1c[nH]c2ccccc12
- MAO, % (half-life as % vs. the related nondeuterated compound) [1]: 166%
- RLM, % (half-life as % vs. the related nondeuterated compound) [2]: 159%

SMILES: [2H]C([2H])(NC)C([2H])([2H])c1c[nH]c2cccc(O)c12
- MAO, % (half-life as % vs. the related nondeuterated compound) [1]: 396%
- RLM, % (half-life as % vs. the related nondeuterated compound) [2]: 160%

SMILES: [2H]C([2H])(c1c[nH]c2cccc(OC)c12)C([2H])([2H])N(C)CC
- MAO, % (half-life as % vs. the related nondeuterated compound) [1]: 291%
- RLM, % (half-life as % vs. the related nondeuterated compound) [2]: 161%

SMILES: [2H]C([2H])([2H])NC([2H])([2H])Cc1c[nH]c2cccc(O)c12
- MAO, % (half-life as % vs. the related nondeuterated compound) [1]: 466%
- RLM, % (half-life as % vs. the related nondeuterated compound) [2]: 163%

SMILES: [2H]c1[nH]c2c([2H])c([2H])c([2H])c([2H])c2c1CCN(C)C
- MAO, % (half-life as % vs. the related nondeuterated compound) [1]: [103] %
- RLM, % (half-life as % vs. the related nondeuterated compound) [2]: [106] %

SMILES: [2H]C([2H])(c1c[nH]c2ccc(O)cc12)C([2H])([2H])N(C)C
- MAO, % (half-life as % vs. the related nondeuterated compound) [1]: 418%
- RLM, % (half-life as % vs. the related nondeuterated compound) [2]: 136%

SMILES: [2H]C([2H])([2H])N(C([2H])([2H])[2H])C([2H])([2H])C([2H])([2H])c1c[nH]c2ccccc12 [DMT-d10]
- stability in the MAO-A enzymatic assay ([1]; MAO-A enzymatic assay): superiority
- % Remaining of Initial, 0 min [1, 3]: 100%
- % Remaining of Initial, 0 min [1, 4]: 100.0%
- % Remaining of Initial, 5 min [1, 3]: 107%
- % Remaining of Initial, 5 min [1, 4]: 99.0%
- % Remaining of Initial, 10 min [1, 3]: 112%
- % Remaining of Initial, 10 min [1, 4]: 94.9%
- % Remaining of Initial, 20 min [1, 3]: 103%
- % Remaining of Initial, 20 min [1, 4]: 95.4%
- % Remaining of Initial, 30 min [1, 3]: 101%
- % Remaining of Initial, 30 min [1, 4]: 91.4%
- % Remaining of Initial, 60 min [1, 3]: 82.2%
- % Remaining of Initial, 60 min [1, 4]: 81.5%
- % Remaining of Initial, 120 min [1, 3]: 68.6%
- % Remaining of Initial, 120 min [1, 4]: 65.8%
- Half-life [1, 3]: > 2 h
- Half-life [1, 4]: > 2 h
- % Remaining of Initial, 0 min ([2]; Table 2, four test articles): 100%
- % Remaining of Initial, 0 min [2, 5]: 100%
- % Remaining of Initial, 5 min ([2]; Table 2, four test articles): 72.5%
- % Remaining of Initial, 5 min [2, 5]: 69.3%
- % Remaining of Initial, 10 min ([2]; Table 2, four test articles): 62.2%
- % Remaining of Initial, 10 min [2, 5]: 56.0%
- % Remaining of Initial, 20 min ([2]; Table 2, four test articles): 55.2%
- % Remaining of Initial, 20 min [2, 5]: 44.9%
- % Remaining of Initial, 30 min ([2]; Table 2, four test articles): 50.9%
- % Remaining of Initial, 30 min [2, 5]: 39.3%
- % Remaining of Initial, 60 min ([2]; Table 2, four test articles): 39.6%
- % Remaining of Initial, 60 min [2, 5]: 30.5%
- % Remaining of Initial, 120 min ([2]; Table 2, four test articles): 29.4%
- % Remaining of Initial, 120 min [2, 5]: 23.6%
- metabolic stability ([2]; rat liver microsomes, compared with DMT-α,α-d2 and DMT-α,α,β,β-d4): Further enhancement of metabolic stability

SMILES: CNCCc1c[nH]c2ccccc12 [reference compound]
- MAO (metabolized or not) [1]: R
- RLM (metabolized or not) [2]: R

SMILES: [2H]C([2H])(c1c[nH]c2ccccc12)C([2H])([2H])N(C)CC
- MAO, % (half-life as % vs. the related nondeuterated compound) [1]: 162%
- RLM, % (half-life as % vs. the related nondeuterated compound) [2]: 131%

SMILES: [2H]C([2H])([2H])NC([2H])([2H])Cc1c[nH]c2ccccc12
- MAO, % (half-life as % vs. the related nondeuterated compound) [1]: 744%
- RLM, % (half-life as % vs. the related nondeuterated compound) [2]: 207%

SMILES: [2H]C([2H])(Cc1c[nH]c2cccc(OC)c12)N(C)CC
- MAO, % (half-life as % vs. the related nondeuterated compound) [1]: 281%
- RLM, % (half-life as % vs. the related nondeuterated compound) [2]: 163%

SMILES: [2H]C([2H])(NCC)C([2H])([2H])c1c[nH]c2ccccc12
- MAO, % (half-life as % vs. the related nondeuterated compound) [1]: 140%
- RLM, % (half-life as % vs. the related nondeuterated compound) [2]: 142%

SMILES: [2H]C([2H])([2H])Oc1ccc2[nH]cc(C([2H])([2H])C([2H])([2H])N(C([2H])([2H])[2H])C([2H])([2H])[2H])c2c1
- MAO, % (half-life as % vs. the related nondeuterated compound) [1]: 372%
- RLM, % (half-life as % vs. the related nondeuterated compound) [2]: 299%
